Where a name gives a salt, the structure may show the parent alone.
How the values were obtained:
Type in all cases: biochemical
cathepsin L = biological target: T1, cathepsin L (Rattus norvegicus, UniProt P07154); assay: Determination of inhibition rate against cathepsin L; conditions: for B/L: IC50 against cathepsin B divided by IC50 against cathepsin L; for IC50: cathepsin L from rat liver, substrate Z-Phe-Arg-MCA, pH 5.5, 30° C, 10 minutes
T1 construct: extracted from a rat liver and completely purified; from tissue; host or cells: rat liver
Protocol: (§1) Determination of inhibition rate against cathepsin L, B and H […]
(§2) Each cathepsin was diluted with a diluent (0.1% Brij 35) to adjust its concentration to 0.3 U (0.1 U: a concentration at which 1.0 nmol of MCA is released per minute at 37° C.). To 500 μl of this solution, were added 250 μl of an activator/buffer (340 mM sodium acetate, 60 mM acetic acid, 4 mM disodium EDTA; pH 5.5). After the mixture was incubated for 1 minute at 30° C., the sample solution of the predetermined concentration and […] of a substrate solution were added to conduct a reaction for 10 minutes.

cathepsin B = biological target: T2, cathepsin B (Rattus norvegicus, UniProt P00787); assay: Determination of inhibition rate against cathepsin B; conditions: cathepsin B from rat liver; substrate Z-Arg-Arg-MCA; pH 5.5; 30° C; 10 minutes
T2 construct: extracted from a rat liver and completely purified; from tissue; host or cells: rat liver
Protocol: as §1, §2

cathepsin H = biological target: T3, cathepsin H (Homo sapiens, UniProt P09668); assay: Determination of inhibition rate against cathepsin H; conditions: purified cathepsin H (Sigma Co.); substrate Arg-MCA; pH 5.5; 30° C; 10 minutes
T3 construct: purchased Sigma Co
T3 sequence (P09668 98-335): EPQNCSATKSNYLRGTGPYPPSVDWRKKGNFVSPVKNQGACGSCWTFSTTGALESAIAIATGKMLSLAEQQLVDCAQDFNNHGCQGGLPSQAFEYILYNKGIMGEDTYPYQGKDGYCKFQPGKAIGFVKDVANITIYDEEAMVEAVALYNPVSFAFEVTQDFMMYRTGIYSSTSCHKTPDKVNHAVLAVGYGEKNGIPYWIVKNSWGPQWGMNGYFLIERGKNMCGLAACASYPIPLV
Protocol: Determination of inhibition rate against cathepsin L, B and H
A purified product was purchased from Sigma Co. and used as cathepsin H, and as a substrate thereof, Arg-MCA was used.
as §2

T2 sequence (P00787 129-333 limits assumed): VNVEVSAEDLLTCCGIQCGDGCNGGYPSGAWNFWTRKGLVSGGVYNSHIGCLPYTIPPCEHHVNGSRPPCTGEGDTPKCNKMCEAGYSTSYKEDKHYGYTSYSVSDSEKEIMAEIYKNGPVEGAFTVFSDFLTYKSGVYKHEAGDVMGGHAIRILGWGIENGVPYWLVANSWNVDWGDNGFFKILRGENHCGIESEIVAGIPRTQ
T2 sequence (P00787 80-126 limits assumed): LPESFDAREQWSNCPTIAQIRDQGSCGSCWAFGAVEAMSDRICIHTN
T1 sequence (P07154 114-288 limits assumed): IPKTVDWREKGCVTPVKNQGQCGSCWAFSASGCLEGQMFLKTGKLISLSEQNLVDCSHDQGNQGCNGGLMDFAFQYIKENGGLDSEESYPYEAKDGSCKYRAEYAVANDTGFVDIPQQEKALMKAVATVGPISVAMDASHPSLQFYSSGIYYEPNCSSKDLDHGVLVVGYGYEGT
T1 sequence (P07154 291-334 limits assumed): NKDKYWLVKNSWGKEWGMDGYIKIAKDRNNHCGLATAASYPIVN

| B/L (cathepsin L) | IC50 (cathepsin L) [nM] | IC50 (cathepsin B) [nM] | IC50 (cathepsin H) [nM] | Structure (SMILES) |
| --- | --- | --- | --- | --- |
| > 285 | 35 | > 10000 | > 10000 | NCCCC[C@H](NC(=O)[C@H]1O[C@@H]1C(=O)NCCc1ccccc1)C(=O)Nc1cccc2ccccc12 [Example 2, Nα-[L-3-trans-(2-phenylethylcarbamoyl)oxirane-2-carbonyl]-L-lysine-1-naphthylamide hydrochloride] |
| > 333 | 30 | > 10000 |  | CN(C)C(=O)[C@H](Cc1ccccc1)NC(=O)[C@H]1O[C@@H]1C(=O)N[C@@H](CCCCN)C(=O)Nc1ccccc1 [Example 65, Nα-{L-3-trans-[(S)-1-dimethylcarbamoyl-2-phenylethylcarbamoyl]oxirane-2-carbonyl}-L-lysine anilide hydrochloride] |
| 30000 | 3 | 90000 |  | NCCCC[C@H](NC(=O)[C@H]1O[C@@H]1C(=O)N[C@@H](Cc1ccccc1)C(=O)NCCc1ccccc1)C(=O)Nc1ccccc1C(F)(F)F [Example 43, Nα-{L-3-trans-[(S)-1-(2-phenylethylcarbamoyl)-2-phenylethylcarbamoyl]oxirane-2-carbonyl)-L-lysine-2-trifluoromethylanilide hydrochloride] |
| > 1177 | 8.5 | > 10000 |  | NCCCC[C@H](NC(=O)[C@H]1O[C@@H]1C(=O)N[C@@H](Cc1ccccc1)C(=O)NC1CCCCC1)C(=O)Nc1ccccc1 [Example 69, Nα-{L-3-trans-[(S)-1-cyclohexylcarbamoyl-2-phenylethylcarbamoyl]oxirane-2-carbonyl}-L-lysine anilide hydrochloride] |
| 7045 |  | 3100 |  | NCCCC[C@H](NC(=O)[C@H]1O[C@@H]1C(=O)N[C@@H](Cc1ccccc1)C(N)=O)C(=O)Nc1ccc(Cl)c2ccccc12 [Example 48, Nα-{L-3-trans-[(S)-1-carbamoyl-2-phenylethylcarbamoyl]oxirane-2-carbonyl}-L-lysine-1-(4-chloronaphthyl)amide hydrochloride] |
| 6470 | 1.7 | 11000 |  | NCCCC[C@H](NC(=O)[C@H]1O[C@@H]1C(=O)N[C@@H](Cc1ccccc1)C(=O)NCCc1ccccc1)C(=O)Nc1ccccc1 [Example 35, Nα-{L-3-trans-[(S)-1-(2-phenylethylcarbamoyl)-2-phenylethylcarbamoyl]oxirane-2-carbonyl}-L-lysine anilide hydrochloride] |
| > 250 | 40 | > 10000 |  | NCCCC[C@H](NC(=O)[C@H]1O[C@@H]1C(=O)NC1Cc2ccccc2C1)C(=O)Nc1cccc2ccccc12 [Example 12, Nα-[L-3-trans-(2-indanylcarbamoyl)oxirane-2-carbonyl]-L-lysine-1-naphthylamide hydrochloride] |
| 7500 | 1.6 | 12000 |  | COc1ccccc1NC(=O)[C@H](CCCCN)NC(=O)[C@H]1O[C@@H]1C(=O)N[C@@H](Cc1ccccc1)C(=O)NCCc1ccccc1 [Example 39, Nα-{L-3-trans-[(S)-1-(2-phenylethylcarbamoyl)-2-phenylethylcarbamoyl]oxirane-2-carbonyl}-L-lysine-2-methoxyanilide hydrochloride] |
| 571 | 70 | 40000 |  | NCCCC[C@H](NC(=O)[C@H]1O[C@@H]1C(=O)N[C@@H](Cc1ccccc1)C(N)=O)C(=O)N1CCc2ccccc21 [Example 45, Nα-{L-3-trans-[(S)-1-carbamoyl-2-phenylethylcarbamoyl]oxirane-2-carbonyl}-L-lysine indolinylamide hydrochloride] |
| 2444 | 18 | 44000 |  | NCCCC[C@H](NC(=O)[C@H]1O[C@@H]1C(=O)N[C@@H](Cc1ccccc1)C(N)=O)C(=O)Nc1ccccc1 [Example 55, Nα-{L-3-trans-[(S)-1-carbamoyl-2-phenylethylcarbamoyl]oxirane-2-carbonyl}-Nε-L-lysine anilide hydrochloride] |
| 3906 | 6.4 | 25000 |  | COc1ccccc1NC(=O)[C@H](CCCCN)NC(=O)[C@H]1O[C@@H]1C(=O)N[C@@H](Cc1ccccc1)C(N)=O [Example 37, Nα-{L-3-trans-[(S)-1-carbamoyl-2-phenylethylcarbamoyl]oxirane-2-carbonyl}-L-lysine-2-methoxyanilide hydrochloride] |
| 1176 | 1.7 | 2000 |  | NCCCC[C@H](NC(=O)[C@H]1O[C@@H]1C(=O)N[C@@H](Cc1ccccc1)C(=O)NCCc1ccccc1)C(=O)Nc1ccc(Cl)c2ccccc12 [Example 49, Nα-{L-3-trans-[(S)-1-(2-phenylethylcarbamoyl)-2-phenylethylcarbamoyl]oxirane-2-carbonyl}-L-lysine-1-(4-chloronaphthyl)amide hydrochloride] |
| > 667 | 15 | > 10000 | > 10000 | NCCCC[C@H](NC(=O)[C@H]1O[C@@H]1C(=O)N[C@@H](Cc1ccccc1)C(N)=O)C(=O)Nc1cccc2ccccc12 [Example 14, Nα-{L-3-trans-[(S)-1-carbamoyl-2-phenylethylcarbamoyl]oxirane-2-carbonyl}-L-lysine-1-naphthylamide hydrochloride] |
| 28.4 | 0.81 | 23 |  | NCCCCCCCCNC(=O)[C@H](Cc1ccccc1)NC(=O)[C@H]1O[C@@H]1C(=O)O [Preparation Example 61, N-{N-[(2S,3S)-3-trans-Carboxyoxirane-2-carbonyl]-L-phenylalanyl}-1,8-diaminooctane, reference compound] |
| 94.4 | 72 | 6800 | 6000 | NCCCC[C@H](NC(=O)[C@H]1O[C@@H]1C(=O)Nc1cccc2ccccc12)C(=O)Nc1cccc2ccccc12 [Example 30, Nα-[L-3-trans-(1-naphthylcarbamoyl)oxirane-2-carbonyl]-L-lysine-1-naphthylamide hydrochloride] |
| 70000 | 0.03 | 2100 |  | NCCCC[C@H](NC(=O)[C@H]1O[C@@H]1C(=O)N[C@@H](Cc1ccccc1)C(=O)NCCc1ccccc1)C(=O)Nc1cccc2ccccc12 [Example 24, Nα-{L-3-trans-[(S)-1-(2-phenylethylcarbamoyl)-2-phenylethylcarbamoyl]oxirane-2-carbonyl}-L-lysine-1-naphthylamide hydrochloride] |
| 1570 | 36 | 68000 |  | CCNC(=O)[C@H](Cc1ccccc1)NC(=O)[C@H]1O[C@@H]1C(=O)N[C@@H](CCCCN)C(=O)Nc1ccccc1 [Example 67, Nα-{L-3-trans-[(S)-1-ethylcarbamoyl-2-phenylethylcarbamoyl]oxirane-2-carbonyl)-L-lysine anilide hydrochloride] |
| 7500 | 0.4 | 3000 | 3200 | NCCCC[C@H](NC(=O)[C@H]1O[C@@H]1C(=O)N[C@@H](Cc1ccccc1)C(=O)NCc1ccccc1)C(=O)Nc1cccc2ccccc12 [Example 26, Nα-{L-3-trans-[(S)-1-benzylcarbamoyl-2-phenylethylcarbamoyl]oxirane-2-carbonyl}-L-lysine-1-naphthylamide hydrochloride] |

| Structure (SMILES) | B/L (cathepsin L) | IC50 (cathepsin L) [nM] | IC50 (cathepsin B) [nM] | IC50 (cathepsin H) [nM] |
| --- | --- | --- | --- | --- |
| CC(=O)NCCCC[C@H](NC(=O)[C@H]1O[C@@H]1C(=O)N[C@@H](Cc1ccccc1)C(=O)NCCc1ccccc1)C(=O)Nc1cccc2ccccc12 [Example 32, Nα-{L-3-trans-[(S)-1-(2-phenylethylcarbamoyl)-2-phenylethylcarbamoyl]oxirane-2-carbonyl}-Nε-acetyl-L-lysine-1-naphthylamide] | 17500 | 0.04 | 7000 | 4800 |

Source: patent US5883121A, “Epoxysuccinamide derivative or salt thereof, and medicine comprising the same” (Taiho Pharmaceutical Co., Ltd., priority 1995, dated 1999)
